This is an account of results in paper PMC4364556, “Comparative Distribution and In Vitro Activities of the Urotensin II-Related Peptides URP1 and URP2 in Zebrafish: Evidence for Their Colocalization in Spinal Cerebrospinal Fluid-Contacting Neurons” (PLoS ONE, 2015).

For this assay, the target named is T1, human UII receptor (hUT) (Homo sapiens, UniProt Q9UKP6).
T1 construct: expressed in transfected cells
T1 sequence (Q9UKP6 1-389): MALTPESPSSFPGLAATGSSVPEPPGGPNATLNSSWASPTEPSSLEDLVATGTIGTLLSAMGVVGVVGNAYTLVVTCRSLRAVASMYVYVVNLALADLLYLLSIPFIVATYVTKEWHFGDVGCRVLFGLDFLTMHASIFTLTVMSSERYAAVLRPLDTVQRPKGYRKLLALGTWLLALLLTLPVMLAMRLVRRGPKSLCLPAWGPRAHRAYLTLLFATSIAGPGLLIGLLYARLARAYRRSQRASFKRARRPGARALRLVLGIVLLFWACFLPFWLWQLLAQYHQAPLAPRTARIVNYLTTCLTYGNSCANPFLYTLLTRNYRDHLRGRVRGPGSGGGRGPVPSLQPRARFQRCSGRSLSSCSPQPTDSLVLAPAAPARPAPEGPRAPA
As to the kind of experiment: Intracellular calcium mobilization assay (hUT-CHO cells). Type of assay: cell-based. The following applies: for EC50: agonist, CHO cells stably transfected with human UT, Fluo-4 AM, 37°C, fluorescence 485/525 nm, 180 sec, peptides 10^-12 to 10^-6 M, peak fluorescence, four-parameter logistic, mean ± SEM of 7–13 independent experiments, read-out: pEC50, intracellular calcium mobilization (converted); for comparison of potency of URP1 and URP2 to activate the hUT: URP1 vs URP2; for times less potent than hUII to mobilize intracellular calcium: compared with hUII pEC50 = […]; for efficacy, increase in intracellular calcium: percentages of the baseline (baseline normalized to 100%), Fluo-4 AM peak fluorescence, similar to efficacies evoked by hUII and mURP, approximate ('around'). On the procedure: CHO cells stably transfected with the human UII receptor (hUT-CHO) (Chatenet et al. 2004) were plated at a density of 4 x 10^4 cells/well in flat clear bottom black 96-well plates. Measures of intracellular calcium mobilization were performed as previously described (Dubessy et al. 2008) with slight modifications. Briefly, after 24 h in culture, cells were incubated for 1 h in a humidified incubator (37°C, 5% CO2) with 2 μM Fluo-4 acetoxymethyl ester (AM) calcium dye (Life Technologies) in Hank’s Buffer Saline Solution (HBSS; Life Technologies) buffered with 5 mM HEPES and supplemented with 2.5 mM probenecid (Sigma-Aldrich, Saint-Quentin Fallavier, France). Cells were washed twice with HBSS/HEPES/probenecid to remove Fluo-4 AM from the incubation medium and incubated in 150 μl of the same medium at 37°C for 15 min. Fluorescence was recorded using a Flexstation 3 fluorescence plate reader system (Molecular Devices, Saint-Grégoire, France) during 180 sec with an excitation wavelength of 485 nm, an emission wavelength of 525 nm and a cutoff filter of 515 nm. After 18 sec recording in basal conditions, 50 μl of graded concentration (10^-12 to 10^-6 M) of different peptides (4-fold final concentration) was added to the incubation medium with the built-in 8 channel pipettor at a rate of 47 μl/sec to assess their agonistic activity. After subtraction of mean fluorescence background from control wells without Fluo-4 AM, baseline was normalized to 100% and fluorescence peak values were determined for each concentration of peptide. Potency (EC50) and efficacy (Emax) were calculated with the Prism 5.0 software (GraphPad Software In., La Jolla, CA, USA) using a four-parameter logistic equation to fit peak fluorescence data.
For intracellular calcium mobilization assays, results from 7–13 independent experiments were expressed as mean ± SEM of Log(EC50) and plotted with box and whiskers. The normality of each data set was verified with the Shapiro-Wilk’s test and a one-way ANOVA test followed by a Tukey’s multiple comparison test to compare Log(EC50) between each peptide. Differences were considered significant where P<0.05.
On the technique in general: Calcium assays in cells follow changes in intracellular calcium, usually with a dye or a luminescent sensor.

[1] abbreviates: hUT-CHO cells, one-way ANOVA followed by Tukey's test on Log(EC50).

Molecules are shown by their SMILES. Where a SMILES comes first, the peptide text is derived from it. Bridges are numbered along the chain shown (N, C = ends).

As to `CC(C)[C@H](NC(=O)[C@@H]1CSSC[C@H](NC(=O)[C@H](C)N)C(=O)N[C@@H](Cc2ccccc2)C(=O)N[C@@H](Cc2c[nH]c3ccccc23)C(=O)N[C@@H](CCCCN)C(=O)N[C@@H](Cc2ccc(O)cc2)C(=O)N1)C(=O)O` [mURP, reference compound], the EC50 was 2.45 nM. In addition, for the setting “hUT-CHO cells, vs hUII, URP1 and URP2, one-way ANOVA followed by Tukey's test on Log(EC50), P<0.05”, the “potency compared with the other tested peptides” value was “intermediate potency”.
`CC(C)[C@H](NC(=O)[C@@H]1CSSC[C@H](NC(=O)[C@H](C)N)C(=O)N[C@@H](Cc2ccccc2)C(=O)N[C@@H](Cc2c[nH]c3ccccc23)C(=O)N[C@@H](CCCCN)C(=O)N[C@@H](Cc2ccc(O)cc2)C(=O)N1)C(=O)N[C@H](C(=O)N[C@@H](CC(N)=O)C(=O)O)[C@@H](C)O` [URP1] (H-ACFWKYCVTN-OH; disulfide 2-7): the EC50 was 10.2 nM. In addition, the “comparison of potency of URP1 and URP2 to activate the hUT” value under setting [1] is recorded as “equipotent to activate the hUT”. Where the note is “hUT-CHO cells”, the “times less potent than hUII to mobilize intracellular calcium” value was determined as 28 times and the “efficacy, increase in intracellular calcium” value was 200–250%.
Regarding `CC(C)[C@H](N)C(=O)N[C@H]1CSSC[C@@H](C(=O)N[C@@H](CO)C(=O)N[C@@H](CCC(N)=O)C(=O)N[C@@H](CC(N)=O)C(=O)O)NC(=O)[C@H](Cc2ccc(O)cc2)NC(=O)[C@H](CCCCN)NC(=O)[C@H](Cc2c[nH]c3ccccc23)NC(=O)[C@H](Cc2ccccc2)NC1=O` [URP2] (H-VCFWKYCSQN-OH; disulfide 2-7), the EC50 is 30.2 nM. For the same molecule, the “comparison of potency of URP1 and URP2 to activate the hUT” value under setting [1] is “equipotent to activate the hUT”. Further, under “hUT-CHO cells”, the “times less potent than hUII to mobilize intracellular calcium” value is 83 times and the “efficacy, increase in intracellular calcium” value was 200–250%.
